Data taken from patent US11427567B2, “Imidazolyl pyrimidinylamine compounds as CDK2 inhibitors” (Incyte Corporation, priority 2019, dated 2022).
pIC50: −log10 of the molar value.

molecular target: CDK2/Cyclin E1 (Homo sapiens (Human), UniProt P24941); experiment: CDK2/Cyclin E1 HTRF enzyme activity assay (Example A); assay type: biochemical; settings: 1 mM ATP
Description: Assays were conducted in white 384-well polystyrene plates in a final reaction volume of 8 μL. […] HTRF signals were read after 1 hour at room temperature on a PHERAstar FS plate reader (BMG Labtech). Data was analyzed with IDBS XLFit and GraphPad Prism 5.0 software using a three or four parameter dose response curve to determine IC50 for each compound.

pIC50, ≥ 7.30:
Cc1nc(-c2nc(NC3CCN(S(C)(=O)=O)CC3)ncc2C(F)(F)F)cn1-c1ccc(CN2CC(O)C2)cc1F [Example 355, 1-(3-Fluoro-4-(2-methyl-4-(2-((1-(methylsulfonyl)piperidin-4-yl)amino)-5-(trifluoromethyl)pyrimidin-4-yl)-1H-imidazol-1-yl)benzyl)azetidin-3-ol]
Cc1nc(C(N)=O)ccc1-n1cnc(-c2nc(NC3CCN(S(C)(=O)=O)CC3)ncc2C(F)(F)F)c1 [Example 130, 6-Methyl-5-(4-(2-((1-(methylsulfonyl)piperidin-4-yl)amino)-5-(trifluoromethyl)pyrimidin-4-yl)-1H-imidazol-1-yl)picolinamide]
CN(C)C(=O)c1ccc(-n2cnc(-c3nc(NC4CCN(S(C)(=O)=O)CC4)ncc3C(F)(F)F)c2)c(Cl)c1F [Example 136, 3-Chloro-2-fluoro-N,N-dimethyl-4-(4-(2-((1-(methylsulfonyl)piperidin-4-yl)amino)-5-(trifluoromethyl)pyrimidin-4-yl)-1H-imidazol-1-yl)benzamide]
CS(=O)(=O)N1CCC(Nc2ncc(C(F)(F)F)c(-c3cn(-c4ccc(CCN5CCC5)cc4Cl)cn3)n2)CC1 [Example 158, 4-(1-(4-(2-(Azetidin-1-yl)ethyl)-2-chloro-phenyl)-1H-imidazol-4-yl)-N-(1-(methyl-sulfonyl)piperidin-4-yl)-5-(trifluoro-methyl)pyrimidin-2-amine]
CCN1CCN(Cc2cc(F)c(-n3cnc(-c4nc(NC5CCN(S(C)(=O)=O)CC5)ncc4C(F)(F)F)c3)c(F)c2)CC1 [Example 351, 4-(1-(4-((4-Ethylpiperazin-1-yl)methyl)-2,6-difluorophenyl)-1H-imidazol-4-yl)-N-(1-(methylsulfonyl)piperidin-4-yl)-5-(trifluoromethyl)pyrimidin-2-amine]
CN1CCC(c2ccc(-n3cnc(-c4nc(NC5CCN(S(C)(=O)=O)CC5)ncc4C(F)(F)F)c3)c(Cl)c2)CC1 [Example 439, 4-(1-(2-Chloro-4-(1-methylpiperidin-4-yl)phenyl)-1H-imidazol-4-yl)-N-(1-(methylsulfonyl)piperidin-4-yl)-5-(trifluoromethyl)pyrimidin-2-amine]
C[C@@H]1CN(S(C)(=O)=O)CC[C@@H]1Nc1ncc(C(F)(F)F)c(-c2cn(-c3ccc(CNCC#N)cc3Cl)cn2)n1 [Example 217, 2-((3-Chloro-4-(4-(2-(((3R,4S)-3-methyl-1-(methylsulfonyl)-piperidin-4-yl)amino)-5-(trifluoromethyl)-pyrimidin-4-yl)-1H-imidazol-1-yl)benzyl)-amino)acetonitrile]
COc1nccc(-n2cnc(-c3nc(N[C@H]4CCN(S(C)(=O)=O)C[C@H]4F)ncc3C(F)(F)F)c2)c1C#N [Example 297, 4-(4-(2-(((3R,4S)-3-Fluoro-1-(methylsulfonyl)piperidin-4-yl)amino)-5-(trifluoromethyl)pyrimidin-4-yl)-1H-imidazol-1-yl)-2-methoxynicotinonitrile]
CN1CCN(Cc2cc(F)c(-n3cnc(-c4nc(N[C@H]5CCN(S(C)(=O)=O)C[C@H]5F)ncc4C(F)(F)F)c3)c(F)c2)CC1 [Example 443, 4-(1-(2,6-Difluoro-4((4-methylpiperazin-1-yl)methyl)phenyl)-1H-imidazol-4-yl)-N-((3R,4S)-3-fluoro-1-(methylsulfonyl)piperidin-4-yl)-5-(trifluoromethyl)pyrimidin-2-amine]
CS(=O)(=O)N1CCC(Nc2ncc(C(F)(F)F)c(-c3cn(-c4c(F)cc(CNC5CC5)cc4F)cn3)n2)CC1 [Example 347, 4-(1-(4-((Cyclopropylamino)methyl)-2,6-difluorophenyl)-1H-imidazol-4-yl)-N-(1-(methylsulfonyl)piperidin-4-yl)-5-(trifluoromethyl)pyrimidin-2-amine]
CS(=O)(=O)N1CCC(Nc2ncc(C(F)(F)F)c(-c3cn(-c4cccc(F)c4Cl)cn3)n2)CC1 [Example 65, 4-(1-(2-Chloro-3-fluorophenyl)-1H-imidazol-4-yl)-N-(1-(methylsulfonyl)piperidin-4-yl)-5-(trifluoromethyl)pyrimidin-2-amine]
Cn1cnc(-c2nc(NC3CCN(S(C)(=O)=O)CC3)ncc2C(F)(F)F)c1 [Example 11, 4-(1-Methyl-1H-imidazol-4-yl)-N-(1-(methylsulfonyl)piperidin-4-yl)-5-(trifluoromethyl)pyrimidin-2-amine]
Cn1cnc(-c2nc(NC3CCN(S(C)(=O)=O)CC3)ncc2C(F)(F)F)c1Br [Example 13, 4-(5-Bromo-1-methyl-1H-imidazol-4-yl)-N-(1-(methylsulfonyl)piperidin-4-yl)-5-(trifluoromethyl)pyrimidin-2-amine]
O=S(=O)(C1CC1)N1CCC(Nc2ncc(C(F)(F)F)c(-c3cn(-c4cccnc4C(F)(F)F)cn3)n2)CC1 [Example 91, N-(1-(Cyclopropylsulfonyl)piperidin-4-yl)-5-(trifluoromethyl)-4-(1-(2-(trifluoromethyl)pyridin-3-yl)-1H-imidazol-4-yl)pyrimidin-2-amine]
Cc1nn(C)cc1-c1ccc(-n2cc(-c3nc(NC4CCN(S(C)(=O)=O)CC4)ncc3C(F)(F)F)nc2C)c(F)c1 [Example 127, 4-(1-(4-(1,3-Dimethyl-1H-pyrazol-4-yl)-2-fluorophenyl)-2-methyl-1H-imidazol-4-yl)-N-(1-(methylsulfonyl)piperidin-4-yl)-5-(trifluoromethyl)pyrimidin-2-amine]
CS(=O)(=O)N1CCC(Nc2ncc(C(F)(F)F)c(-c3cn(-c4ccc(CNC5CC5)cc4C#N)cn3)n2)CC1 [Example 343, 5-((Cyclopropylamino)methyl)-2-(4-(2-((1-(methylsulfonyl)piperidin-4-yl)amino)-5-(trifluoromethyl)pyrimidin-4-yl)-1H-imidazol-1-yl)benzonitrile]
CN1CCN(c2ccc(-n3cnc(-c4nc(NC5CCN(S(C)(=O)=O)CC5)ncc4C(F)(F)F)c3)c(Cl)c2)C1=O [Example 147, 1-(3-Chloro-4-(4-(2-((1-(methyl-sulfonyl)piperidin-4-yl)amino)-5-(trifluoromethyl)-pyrimidin-4-yl)-1H-imidazol-1-yl)-phenyl)-3-methyl-imidazolidin-2-one]
Cn1cc(S(=O)(=O)N2CCC(Nc3ncc(C(F)(F)F)c(-c4cn(-c5cccnc5C(F)F)cn4)n3)CC2)cn1 [Example 88, 4-(1-(2-(Difluoromethyl)pyridin-3-yl)-1H-imidazol-4-yl)-N-(1-((1-methyl-1H-pyrazol-4-yl)sulfonyl)piperidin-4-yl)-5-(trifluoromethyl) pyrimidin-2-amine]
Cc1nc(-c2nc(NC3CCN(S(C)(=O)=O)CC3)ncc2C(F)(F)F)cn1-c1ccc(C2CNC2)cc1F [Example 160, 4-(1-(4-(Azetidin-3-yl)-2-fluorophenyl)-2-methyl-1H-imidazol-4-yl)-N-(1-(methylsulfonyl)piperidin-4-yl)-5-(trifluoromethyl)pyrimidin-2-amine]
CCNCc1cc(F)c(-n2cnc(-c3nc(N[C@@H]4CCN(S(C)(=O)=O)C[C@H]4F)ncc3C(F)(F)F)c2)c(Cl)c1 [Example 406, 4-(1-(2-Chloro-4-((ethylamino)methyl)-6-fluorophenyl)-1H-imidazol-4-yl)-N-((3R,4R)-3-fluoro-1-(methylsulfonyl)piperidin-4-yl)-5-(trifluoromethyl)pyrimidin-2-amine]
Cc1c(-n2cnc(-c3nc(NC4CCN(S(=O)(=O)c5cn(C)cn5)CC4)ncc3C(F)(F)F)c2)ccnc1C#N [Example 7, 3-Methyl-4-(4-(2-((1-((1-methyl-1H-imidazol-4-yl)sulfonyl)piperidin-4-yl)amino)-5-(trifluoromethyl)pyrimidin-4-yl)-1H-imidazol-1-yl)picolinonitrile]
CS(=O)(=O)N1CCC(Nc2ncc(C(F)(F)F)c(-c3cn(-c4ccc(CN5CCCCC5)cc4Cl)cn3)n2)CC1 [Example 208]
C[C@@]1(O)CCN(Cc2cccc(-n3cnc(-c4nc(NC5CCN(S(C)(=O)=O)CC5)ncc4C(F)(F)F)c3)c2C(F)(F)F)C1 [Example 381, (R)-3-Methyl-1-(3-(4-(2-((1-(methylsulfonyl)piperidin-4-yl)amino)-5-(trifluoromethyl)pyrimi-din-4-yl)-1H-imidazol-1-yl)-2-(trifluoromethyl)benzyl) pyrrolidin-3-ol]
CS(=O)(=O)N1CCC(Nc2ncc(C(F)(F)F)c(-c3cn(-c4cc(F)ccc4C#N)cn3)n2)CC1 [Example 57, 4-Fluoro-2-(4-(2-((1-(methylsulfonyl)piperidin-4-yl)amino)-5-(trifluoromethyl)pyrimidin-4-yl)-1H-imidazol-1-yl)benzonitrile]
CC1(CO)CCN1Cc1ccc(-n2cnc(-c3nc(NC4CCN(S(C)(=O)=O)CC4)ncc3C(F)(F)F)c2)c(Cl)c1 (centres unmarked) [Example 201, (1-(3-Chloro-4-(4-(2-((1-(methylsulfonyl)-piperidin-4-yl)amino)-5-(trifluoromethyl)-pyrimidin-4-yl)-1H-imidazol-1-yl)benzyl)-2-methylazetidin-2-yl)methanol]
CS(=O)(=O)N1CCC(Nc2ncc(C(F)(F)F)c(-c3cn(-c4cccc(CN5CCC5)c4C(F)(F)F)cn3)n2)CC1 [Example 380, 4-(1-(3-(Azetidin-1-ylmethyl)-2-(trifluoromethyl)phenyl)-1H-imidazol-4-yl)-N-(1-(methylsulfonyl)piperidin-4-yl)-5-(trifluoromethyl)pyrimi-din-2-amine]
